Drawing on ChEMBL document CHEMBL3301361, “Experimental in vitro DMPK and physicochemical data on a set of publicly disclosed compounds”, this text covers logD for 98 compounds.

The nature of this series: physchem. To be noted: octan-1-ol/water.

Turning to `c1ccc(-c2n[nH]c(-c3ccncc3)n2)nc1`, for the setting “pH 7.4, LogD7.4”, the logD – broadly, lipophilicity at a set pH, counting ionised and neutral species – is 1.48.

For the setting “pH 7.4, LogD7.4”, `Cc1cc(N)n(-c2ccccc2)n1` showed a logD of 1.25. Same read-out and setting: the same measure for `CC1(C)C(=O)Nc2ccccc21`: 2.3. Same read-out and setting: for `COc1ccc(-c2cc(=O)[nH]c(N)n2)cc1` the value was 1.52; for `NCC(O)(c1ccccc1)c1ccccc1`, 0.9; for `COc1cc(-c2ccncc2)cc2cnc(Nc3ccc([C@@H](C)NC(C)=O)cc3)nc12`, 2.73. `Cc1cc(NC(=O)Nc2ccc(Cl)cc2)n(C)n1` showed a logD (pH 7.4, LogD7.4) of 2.96. Where the note is “pH 7.4”, `COc1ccccc1Cn1c(C)nc2ccccc21` showed a logD of 3.47.

`COc1cccc(C(COCc2cc(C(F)(F)F)cc(C(F)(F)F)c2)N2CCNCC2)c1` (stereo not drawn): the logD (pH 7.4, LogD7.4) was 3.1. Same read-out and setting: the same measure for `Cc1cc2n[nH]c(=O)n2c2cc(-c3ccc(C(=O)N4CCOCC4)cc3)ccc12`: 2.77. For the setting “pH 7.4”, `C=CCC1(CC(C)C)C(=O)NC(=O)NC1=O` [BUTALBITAL] showed a log distribution coefficient (logD) of 1.48.

In the case of `CS(=O)(=O)NCC(NC(=O)C1(N)CCN(c2ncnc3[nH]ccc23)CC1)c1ccc(Cl)cc1` (stereo not drawn), the logD (pH 7.4, LogD7.4) amounted to 2.1. Same read-out and setting: for `O=C1CCCc2nc(C#Cc3ccccc3)ccc21` the value was 3.53. The same measure, in the same setting: the same measure for `O=S(=O)(Nc1cccnc1)c1cccs1`: 0.54; for `COc1ccc(NC(=O)CSc2nnc(C)n2-c2ccc(C)cc2)cc1`: 2.94. Still for that read-out and setting: the same measure for `CC(C)(C)C(=O)NCc1ccc(NC(=O)N2CCCC(O)(c3ccc(Cl)c(Cl)c3)C2)cc1` (stereo not drawn): 3.93; for `FC(F)(F)c1cc(COCC(c2ccccc2)N2CCNCC2)cc(C(F)(F)F)c1` (stereo not drawn): 2.9. Under “pH 7.4, LogD7.4”, `CC(=O)Nc1ccc2c(c1)c(-c1cc(NC3CC3)n3ncc(C#N)c3n1)cn2CCC(=O)O` returned a logD of -0.87. On the same count and under the same terms, for `CC(C)Cn1c(=O)n(C)c(=O)c2c(C(=O)N3CC[C@@H](O)C3)c(Cc3cccc4ncccc34)sc21` the value was 1.98; for `O=S(=O)(Nc1cccnc1)c1ccc2c(c1)OCCO2`, 1.34; for `CNc1cc(C(=O)Nc2ccc(N3CCOCC3)cc2)nc2c(N3CCN(C)CC3)cc(OC)cc12`, 2.93.

Consider `COc1cc2ncc(C(N)=O)c(Nc3cc(F)ccc3F)c2cc1OC`, for which, for the setting “pH 7.4, LogD7.4”, the logD is 2.9. The same measure, in the same setting: for `O=c1[nH]c2c(O)ccc([C@@H](O)CNCCc3cccc(CNCc4ccccc4F)c3)c2s1` the value was 0.69; for `CNC[C@H](O)c1ccc(Cl)c(C(=O)NCC23CC4CC(CC(C4)C2)C3)c1`, 1.41; for `CNC(=O)C1(N2CCCNC2=O)CCN(CC[C@H](CN(C)C(=O)c2c(OC)c(C#N)cc3ccccc23)c2ccc(Cl)c(Cl)c2)CC1`, 2.2. For `CN(C)CC/C=C1\c2ccccc2Sc2ccc(Cl)cc21`, the logD (pH 7.4) amounted to 3.42. `CCCSc1nc(N2CCCCC2C(=O)O)ccc1C(=O)NC1CCCCC1` (stereo not drawn) had a logD (pH 7.4, LogD7.4) of 1.36.

Compound `O=C(O)c1cn(C2CC2)c2cc(=[N+]3CCN(C(=O)CC[N+](=O)[O-])CC3)c(F)cc-2c1[O-]` registered a logD (pH 7.4) of 0.22. Still for that read-out and setting: the same measure for `Clc1ccc([C@]23CNC[C@H]2C3)cc1Cl` [AMITIFADINE]: 1.96; for `CCOC(=O)Nc1cccc([C@@H](c2ccc(C(=O)N3CCC3)cc2)N2CCN(Cc3cccnc3)CC2)c1`: 3.02. Still for that read-out and setting: the same measure for `CCN(CC)C(=O)c1ccc(C(=C2CCNCC2)c2ccccc2OC)cc1`: 1. Where the note is “pH 7.4, LogD7.4”, `Cc1c(-c2ccccc2)oc2c(C(=O)OCCN3CCCCC3)cccc2c1=O` [FLAVOXATE] showed a logD of 3.42. On the same count and under the same terms, the same measure for `Cc1occc(=O)c1OCc1ccccc1`: 1.87. The same measure, in the same setting: the same measure for `C[C@@H]1CN(c2nc(N3CCOC[C@@H]3C)c3ccc(-c4ccccc4)nc3n2)C[C@H](C)O1`: 3.75; for `CC[C@H](NC(=O)c1c([S+](C)[O-])c(-c2ccccc2)nc2cc(CN(C)C)ccc12)c1ccccc1` (stereo partly drawn): 2.75; for `CNC(=O)c1ccc(Nc2ncc(F)c(-c3cnc(C)n3C(C)C)n2)cc1F`: 3.31. Same read-out and setting: for `Cn1cc(-c2ccc(O)cc2)c(=O)c2c(O)cc(O)cc21` the value was 2.2.

As for `COc1ccc(CCN2CN=C(SCc3ccc(Cl)cc3)NC2)cc1OC`, the logD (pH 7.4, LogD7.4) turned out to be 2.41. As to `COc1ccc(-c2coc3cc(O)cc(O)c3c2=O)cc1` [BIOCHANIN], the logD (pH 7.4, LogD7.4) was found to be 3.5.

On to `CC(=O)Nc1ccccn1`, for which the logD (pH 7.4, LogD7.4) was determined as 0.5. `Cc1[nH]c2nc(NCc3cccc(Cl)c3)nn2c(=O)c1Cc1ccccc1`: the logD (pH 7.4, LogD7.4) was 3.6. The same measure, in the same setting: the same measure for `NNC(=O)c1ccncc1` [ISONIAZID]: -0.57; for `Cc1ccc(Oc2ccc(C(=O)NCc3ccncc3)cc2)cc1`: 3.65. Consider `Nc1nc(Nc2ccc3nc(-c4ccc(F)cc4)cc(N)c3c2)cc(-c2ccc(C(F)(F)F)cc2)n1`, for which, under “pH 7.4”, the logD was 1.54.

In turn, `COc1ccc(-c2ccccc2)cc1N1CC(=O)NS1(=O)=O` had a logD (pH 7.4, LogD7.4) of -1.01. On the same count and under the same terms, the same measure for `O=C1c2ccccc2CN1C1CCN(CCC(c2ccccc2)c2ccccc2)CC1`: 4.1. With `CC(C)(C)OC(=O)c1ncn2c1[C@@H]1CCCN1C(=O)c1c(Br)cccc1-2` [BRETAZENIL], the log distribution coefficient (logD) (pH 7.4) came out at 2.48. In the case of `CN1CCN2c3ncccc3Cc3ccccc3C2C1` (stereo not drawn) [MIRTAZAPINE], where the note is “pH 7.4, LogD7.4”, the logD is 2.82. Same read-out and setting: the same measure for `O=C1NC(c2ccc(Br)cc2)Nc2ccccc21` (stereo not drawn): 2.68. The same measure, in the same setting: the same measure for `CCCCCc1cc(=O)[nH]c(N)n1`: 1.62. `Nc1[nH]ncc1S(=O)(=O)c1ccccc1` displayed a logD (pH 7.4, LogD7.4) of 1.1.

In turn, `CC(C)NCC(O)COc1nccs1` (stereo not drawn) [TAZOLOL] gave a logD (pH 7.4, LogD7.4) of -0.97. The same measure, in the same setting: the same measure for `Cc1ncc(-c2nc(Nc3ccc(C(=O)NC4CCN(C)CC4)cc3)ncc2F)n1C(C)C`: 2.13; for `Cc1ccc(OCC(=O)O)c(-n2nc3ccccc3n2)c1`: -0.84; for `COc1cc(N2CCN(C(C)=O)CC2)ccc1Nc1ncc(Cl)c(-c2cnc3c(C)cccn23)n1`: 3.2.

For `COc1ccc(C(CNC(=O)Nc2ccccc2)N2CCN(C)CC2)cc1` (stereo not drawn), the logD (pH 7.4, LogD7.4) amounted to 1.5.

The compound `COc1cc2c(Nc3ccc(F)cc3F)c(C(N)=O)cnc2cc1NCCN(C)C` gave a logD (pH 7.4, LogD7.4) of 1.71.

Take `Cn1c(N)nc(CCc2cccc(-c3ccccc3)c2)cc1=O`: the logD (pH 7.4, LogD7.4) stood at 3.8.

For the setting “pH 7.4”, `CCCNC(=O)c1nnc2c(-c3cnccc3OC)cccc2c1N` came in with a logD of 2.83. On to `CCCSc1ncccc1C(=O)N[C@@H]1[C@@H]2CC3C[C@H]1C[C@@](O)(C3)C2`, for which, where the note is “pH 7.4, LogD7.4”, the logD was found to be 2.27. Still for that read-out and setting: for `COc1cc(OC2CCN(C)CC2)c2c(Nc3c(Cl)ccc4c3OCO4)ncnc2c1` the value was 2.98; for `COc1ncnc(NS(=O)(=O)c2ccc(N)cc2)c1OC` [SULFADOXINE], -0.73. Compound `c1ccc2c(OCC3=NCCN3)cccc2c1` came in with a logD (pH 7.4) of 0.68. Turning to `Cn1c(-c2ccc(O)nc2)nc2ccccc21`, the logD (pH 7.4, LogD7.4) turned out to be 1.2. Same read-out and setting: the same measure for `CC(CNS(=O)(=O)C(C)C)c1ccc(-c2ccc(C#N)cc2)cc1` (stereo not drawn): 3.5; for `c1ccc(CN(Cc2ccccc2)c2nn[nH]n2)cc1`: 1.37; for `CCCCCCCN(CCc1ccc(OC(C)(C)C(=O)O)cc1)C(=O)Nc1ccc(F)cc1F`: 1.93. Compound `O=C(Cc1c(C(=O)O)[nH]c2ccccc12)Nc1cccc(C(F)(F)F)c1` returned a logD (pH 7.4) of 1.33. Regarding `CC(=O)N(C)c1ccc2ccn(-c3cc(NC4CC4)n4ncc(C#N)c4n3)c2c1`, the logD (pH 7.4, LogD7.4) stood at 2.9. Still for that read-out and setting: for `c1ccc(C2Cc3ccccc3CN2)cc1` (stereo not drawn) the value was 1.9; for `CS(=O)(=O)c1ccc(C(=O)NC[C@@H](O)CN2CCC(Oc3ccc(Cl)c(Cl)c3)CC2)s1`, 2.86. Same read-out and setting: for `CC(=O)CCCCn1c(=O)c2c(ncn2C)n(C)c1=O` [PENTOXIFYLLINE] the value was 0.22. `Nc1ccc2nc(-c3ccc(O)cc3)sc2c1` returned a logD (pH 7.4) of 3.1. As for `Cc1cnc2nc(SCc3cccc(F)c3F)nc(N[C@H](C)CO)c2n1`, the logD (pH 7.4, LogD7.4) was found to be 3.5.

With `Nc1nc2ccc(-c3cccc(O)c3)cc2s1`, for the setting “pH 7.4, LogD7.4”, the logD amounted to 3.1. Consider `COc1cc(CCc2cc(Nc3ccnc(NCc4ccccn4)n3)[nH]n2)cc(OC)c1`, for which the logD (pH 7.4, LogD7.4) came to 3.5. The same measure, in the same setting: for `NC(=O)c1c(N)sc2c1CCCC2` the value was 1.84; for `CCCNc1nc(N2CCC[C@@H](CC(=O)O)C2)ccc1C(=O)NC1CCCCC1`, 2.33; for `Cc1ncc(CO)c(CO)c1O` [PYRIDOXINE], -0.58. Still for that read-out and setting: for `Cc1cc(Cl)ccc1N1CCN(C(=O)COCc2ccncc2)CC1` the value was 3.22; for `COc1cc(N2CCN(C(N)=O)CC2)ccc1Nc1ncc(Cl)c(-c2cnc3ccccn23)n1`, 3.3; for `CC(C)(C(N)=O)C(=O)NCCCNc1nc(Nc2cccc(NC(=O)N3CCCC3)c2)ncc1Br`, 2.32. On the same count and under the same terms, the same measure for `Nc1nc2nc(SCc3ccccc3)nc(N)c2s1`: 3.1; for `CCN(C(=O)Cc1ccc(S(=O)(=O)N(C)C)cc1)C1CCN(CCC(c2ccccc2)c2ccccc2)CC1`: 3.7. As to `O=S(=O)(Nc1nccs1)c1cc(Cl)ccc1Cl`, under “pH 7.4, LogD7.4”, the logD is 1.14.

On to `CC(C)C(NC(=O)Cn1c(-c2ccc(F)cc2)ncc(NC(=O)OCc2ccncc2)c1=O)C(=O)C(F)(F)F` (stereo not drawn), for which, where the note is “pH 7.4, LogD7.4”, the logD stood at 2.22. Still for that read-out and setting: the same measure for `COc1cc(F)ccc1-c1cncc(CNC2CCCC2)c1`: 2.29. Compound `CCOc1ccc(-n2c(CC)nc3ccccc3c2=O)cc1` registered a logD (pH 7.4) of 3.27. For the compound `FC(F)(F)c1cc(CO[C@H]2CCCN[C@H]2c2ccccc2)cc(C(F)(F)F)c1`, the logD (pH 7.4, LogD7.4) stood at 3.6. Still for that read-out and setting: for `CCOc1cccc(Nc2nnc(C(=O)Nc3ccc(N4CCOCC4)nc3)o2)c1` the value was 3.6. The same measure, in the same setting: the same measure for `Nc1nc(-c2ccccc2)nc2c1nc(O)n2Cc1ccccc1`: 4.16. The compound `O=C1CCOc2nc(C#CC3CCCC3)ccc21` returned a logD (pH 7.4, LogD7.4) of 3. Still for that read-out and setting: the same measure for `Cc1[nH]c2nc(NCc3cccc(Br)c3)nn2c(=O)c1Cc1ccccc1`: 3.68; for `CN(C)c1ncnc2nc[nH]c12` [DIMETHYLADENINE]: 0.95; for `O=c1[nH]nc2cc(CO)c3ccc(-c4ccc[nH]4)cc3n12`: 2.19. The same measure, in the same setting: for `CS(=O)(=O)c1cccc(Nc2nccc(Nc3cccc4ocnc34)n2)c1` the value was 2.9; for `CC1(C)Cc2c(-c3ccccc3)c(-c3ccc(Cl)cc3)c(CC(=O)O)n2C1` [LICOFELONE], 3.07. Compound `N#Cc1c(-c2ccc(-c3ccccc3C(F)(F)F)cc2)nc2ccncc2c1O` displayed a logD (pH 7.4, LogD7.4) of 3.3.
